Assays:
[1] = tested on: TNF-α production in mouse peritoneal macrophages; test: Inhibition of TNF-α in vitro (mouse peritoneal macrophages, LPS/interferon-γ, Luminex); assay type: cell-based; details: Mus musculus, Peritoneal macrophage; suppression of TNF-α; macrophages treated with 50 ng/mL LPS and 10 U/mL interferon-γ for 18 h
Experimental: Mouse Peritoneal Macrophages
1 mL thioglycolate broth (5.0 g yeast extract, 15.0 g casitone or trypticase, 5.0 g dextrose, 2.5 g sodium chloride, 0.75 g L-cystine, 0.5 g sodium thioglycolate, 1.0 mg resazurin, and 0.75 g agar in 1.0 L distilled water) is injected into the peritoneal cavity of Balb/C female mice. At day 4 or 5 post-injection the mice are sacrificed and then injected i.p. with 4 mL RPMI-1640 medium (BioWhittaker) and the peritoneal macrophages are withdrawn by syringe.
Mouse peritoneal microphages are counted with a hemocytometer and adjusted to 5×10^5 cells/well in 96-well plates in RPMI-1640 medium with 10% fetal bovine serum. 200 μL/well is plated in 96-well plates and the cells allowed to settle and adhere to the bottom of the well for at least 3 h. The test compound or standard p38 kinase inhibitor is pre-treated using a series of 8 concentrations for 1 h at 37° C. (20 μL/well). The cells are treated with a mixture of 50 ng/mL lipopolysaccharide (LPS) and 10 U/mL interferon-γ for 18 h at 37° C. (20 μL/well). The conditioned media is harvested and assayed for TNF-α production using the Luminex procedure.
TNF-α/Luminex Detection Assay (Bio-Rad Bio-Plex Kit—Catalog #171-G12221)
The lyophilized premixed TNF-α standard (1 standard tube/two 96-well plates) is reconstituted with 50 μL sterile water (500,000 pg/mL). The samples are vortexed for 5 seconds, incubated on ice for 30 min, and vortexed for 5 seconds before use. A set of twelve 1.5 mL tubes are labeled with #1-thru #12 and then the amounts of cell media shown below added to the appropriate tubes (standard concentrations are as follows: 50,000; 25,000; 12,500; 6,250; 3,125; 1,562.5; 781.3; 390.6; 195.3; 97.7; 48.8; and 24.4 pg/mL). The premixed anti-cytokine conjugated beads are vortexed (25×) vigorously for 30 seconds. The anti-cytokine conjugated beads are diluted to a 1× concentration using 1× Bio-Plex Assay Buffer. For every plate, 240 μL of the pre-mixed beads is added to 5760 μL of Bio-Plex Assay Buffer. A Millipore 96-well filter plate is blocked with 100 μL/well of blocking buffer. The blocking buffer is filtered through using a Millipore filtration system and then toweled dry. 2 washes are performed on the filter plate with 100 μL/well of Bio-Plex Assay Buffer and toweled dry. The 1× anti-cytokine conjugated beads are vortexed for 15 seconds and added 50 μL to each well. This is filtered through and toweled dry. 2 washes are performed on plates with 100 μl/well of Bio-Plex Wash Buffer. Again, it is filtered through and toweled dry. 50 μL of sample or standard is added to each sample well. This is incubated for 60 seconds at RT on a shaker protected from light at setting 6 and then for 30 min at setting 3 and then placed in the refrigerator overnight. 3 washes are performed with Bio-Plex Wash Buffer. Filter through and toweled dry. The cytokine detection antibody is prepared (˜10 min prior to use) for every plate and 60 μL of the premixed cytokine detection antibody stock is added to 5940 μL of Bio-Plex Detection Antibody Diluent. 50 μL of cytokine detection antibody is added and incubated for 60 seconds at RT on a shaker protected from light at setting 6 and then for 30 min at setting 3.3 washes are performed with the Bio-Plex Wash Buffer. This is filtered through and toweled dry. Strept-PE (˜10 minutes prior to use) is prepared for every plate and 60 μL to 5940 μL of Bio-Plex Assay Buffer added. 50 μL of Streptavidin-PE is added to each well and incubated for 60 seconds at RT on a shaker protected from light at setting 6 and then for 10 min at setting 3. 3 washes are performed with Bio-Plex Wash-Buffer. This is filtered through. The beads are re-suspended in 100 μL/well of Bio-Plex Assay Buffer. Standards and samples are read on a Luminex machine. […]

p38 kinase enzyme = p38 kinase enzyme (Homo sapiens, UniProt Q16539); test: Inhibition of p38 kinase; assay type: biochemical; details: 33P-ATP, EGF peptide 661-681, 30° C.
Chain of p38 kinase enzyme (Q16539 whole entry): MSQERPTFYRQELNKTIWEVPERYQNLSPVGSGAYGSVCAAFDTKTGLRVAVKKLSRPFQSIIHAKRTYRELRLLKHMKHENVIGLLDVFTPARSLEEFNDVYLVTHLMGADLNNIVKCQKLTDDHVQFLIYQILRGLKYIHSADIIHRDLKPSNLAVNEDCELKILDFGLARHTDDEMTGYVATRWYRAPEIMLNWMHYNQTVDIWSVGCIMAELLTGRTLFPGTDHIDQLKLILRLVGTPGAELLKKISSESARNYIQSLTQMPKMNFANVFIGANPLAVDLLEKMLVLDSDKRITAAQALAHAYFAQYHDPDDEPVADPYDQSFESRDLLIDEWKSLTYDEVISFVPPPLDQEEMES
Experimental: Standard Solution Preparations
The kinase buffer solution is prepared by combining 2.5 mL 1 M Tris-HCl (pH 7.5), 0.1 ml 1 M dithiothreitol, 1.0 mL 1 M magnesium chloride, and 300 μL 1% Triton X-100 and diluting to 100 mL with water. 84 mL of this kinase buffer solution is combined with 16 mL DMSO to prepare the 16% DMSO solution.
The 200 μM ATP solution is prepared by adding 102.6 μL 10 mM aqueous ATP, 25 μL ^33P-ATP, and 163.5 μL of 4 mM aqueous Epidermal Growth Factor Peptide 661-681 (Biomol, Catalog #P-121) in 5 mL kinase buffer solution.
The p38 kinase enzyme solution is prepared by dissolving 9.5 μL concentrated enzyme solution (250 ng p38 enzyme/μL kinase buffer solution) in 1536 μL kinase buffer solution.
An 80 μM solution of each test compound and control compound are prepared by dissolving 2 μL of a 10 mM stock solution of the respective compounds in dimethylsulfoxide in 248 μL of the 16% DMSO solution in a Costar 96-well microtiter plate. The plate is placed onto the Tecan Genesis automated liquid handler for 1:3 serial dilutions.
10 μL of serially diluted compound is placed with a Beckmnan Multimek 96-well automated liquid handler to the assay plate. […] of 200 μM ATP solution is added with a Titertek Multidrop 8-channel liquid handler. 10 μL of p38 kinase enzyme solution is transferred to the assay plate using the Multimek. The mixture is allowed to react for […] and then the reaction is stopped by adding 60 μL of freshly prepared 5% glacial AcOH with Multidrop. 80 μL of this solution is transferred to an “MAPH” plate using the Multimek. The plates are allowed to set for 30 min at RT and then washed/aspirated on the Titertek MAP extractor with freshly prepared 0.5% glacial AcOH (1×300 μL, 2×200 μL). The wells are blotted and 100 μL MicroScint-20 scintillation fluid (Packard Bioscience) is added with the Multidrop. The plates are allowed to sit for 30 min and counted on a PE/Wallac Microbeta Trilux scintillation counter for ^33P-isotope.
All exemplified compounds were initially tested at 10 concentrations (20 μM−1 nM using 1:3 serial dilutions). […] IC50 values were calculated (IDBS ActivityBase software) for each compound using non-linear regression.

SMILES	IC50 [1]	IC50 (p38 kinase enzyme)
CC(C)(C)Cn1c(N)nc2ccc(-c3[nH]c(C(C)(C)C)nc3-c3ccc(F)cc3)nc21 [EXAMPLE 9, 5-[2-tert-Butyl-5-(4-fluorophenyl)-3H-imidazol-4-yl]-3-(2,2-dimethylpropyl)-3H-imidazo[4,5-b]pyridin-2-ylamine methanesulfonate]	1.2 nM	
CC(C)(C)Cn1c(N)nc2ccc(-c3[nH]c(-c4c(F)cccc4C(F)(F)F)nc3-c3ccccc3)nc21 [EXAMPLE 6, 3-(2,2-Dimethylpropyl)-5-[2-(2-fluoro-6-trifluoromethylphenyl)-5-phenyl-3H-imidazol-4-yl]-3H-imidazo[4,5-b]pyridin-2-ylamine methanesulfonate]	< 9.1 nM	7.2 nM
CC(C)(C)Cn1c(N)nc2ccc(-c3[nH]c(-c4c(F)cccc4Cl)nc3-c3ccccc3)nc21 [compound 18, 5-[2-(2-Chloro-6-fluorophenyl)-5-phenyl-3H-imidazol-4-yl]-3-(2,2-dimethylpropyl)-3H-imidazo[4,5-b]pyridin-2-ylamine methanesulfonate]	< 9.1 nM	3.6 nM

Second part, the molecule after the results:

IC50 [1]	IC50 (p38 kinase enzyme)	SMILES
< 9.1 nM	3.3 nM	C[C@@H](n1c(N)nc2ccc(-c3[nH]c(-c4c(F)cccc4F)nc3-c3ccc(F)cc3)nc21)C(C)(C)C [compound 13, R-5-[2-(2,6-Difluorophenyl)-5-(4-fluorophenyl)-3H-imidazol-4-yl]-3-(1,2,2-trimethylpropyl)-3H-imidazo[4,5-b]pyridin-2-ylamine methanesulfonate]
	3.6 nM	C[C@@H](n1c(N)nc2ccc(-c3[nH]c(C(C)(C)C)nc3-c3ccc(F)cc3)nc21)C(C)(C)C [compound 12, R-5-[2-tert-Butyl-5-(4-fluorophenyl)-3H-imidazol-4-yl]-3-(1,2,2-trimethylpropyl)-3H-imidazo[4,5-b]pyridin-2-ylamine methanesulfonate]
2.4 nM		CC(C)(C)Cn1c(N)nc2ccc(-c3[nH]c(C(C)(C)C)nc3-c3ccc(F)cc3F)nc21 [EXAMPLE 11, 5-[2-tert-Butyl-5-(2,4-difluorophenyl)-3H-imidazol-4-yl]-3-(2,2-dimethylpropyl)-3H-imidazo[4,5-b]pyridin-2-ylamine methanesulfonate]
< 9.1 nM	3.2 nM	Nc1nc2ccc(-c3[nH]c(-c4c(F)cccc4F)nc3-c3ccccc3)nc2n1CC1CC1 [compound 19, 3-Cyclopropylmethyl-5-[2-(2,6-difluorophenyl)-5-phenyl-3H-imidazol-4-yl]-3H-imidazo[4,5-b]pyridin-2-ylamine methanesulfonate]

— patent publication US7582652B2, “Kinase inhibitors” (Eli Lilly and Company, priority 2004, dated 2009)
